Experimental data published in US20220031607A1, “INJECTION COMPOSITION CONTAINING FAB I INHIBITOR, AND PREPARATION METHOD THEREFOR” (CRYSTALGENOMICS, INC., priority 2019, published 2022).

Assay: Solubility in excipients and solvents by HPLC analysis
Format: physicochemical
Conditions: for solubility at 1 h: thermodynamic from solid
Experimental: The excipients approved as pharmaceutical additives and solvents that can be used for future process studies were selected as shown in Table 1. A small amount of the compound of formula 1 was added and dissolved. The addition operation was repeated until completely dissolved. Finally, it was stirred at room temperature for one hour and then filtered to determine the concentration of the compound of formula 1 dissolved in the filtrate through HPLC analysis.
20 μL of each the test solution and the standard solution were tested according to a liquid chromatography method (HPLC) of general test methods of the Korean Pharmacopoeia under the following conditions, and the peak area of the main component of each solution was measured.
Operating Condition and Calculation
Detector: UV spectrophotometer (measurement wavelength 286 nm)
Column: Aegispak C18-L (4.6 mm×250 mm, 5 μm) column
Column temperature: 25° C.
Mobile phase: Acetonitrile:water=3:2

solubility at 1 h (Capryol 90, oil or lipid, in Capryol 90): 2900 µg/mL | solubility at 1 h (DMSO, organic solvent or mixture, in DMSO): 180000 µg/mL | solubility at 1 h (Labrasol, aqueous with cosolvent or surfactant or cyclodextrin, in Labrasol): > 20000 µg/mL | solubility at 1 h (PEG 300, organic solvent or mixture, in PEG 300): > 20000 µg/mL | solubility at 1 h (Peceol, oil or lipid, in Peceol): 4400 µg/mL | solubility at 1 h (Solutol HS 15, aqueous with cosolvent or surfactant or cyclodextrin, in Solutol HS 15): ≥ 10000 µg/mL | solubility at 1 h (Tween 20, aqueous with cosolvent or surfactant or cyclodextrin, in Tween 20): > 20000 µg/mL | solubility at 1 h (Tween 80, aqueous with cosolvent or surfactant or cyclodextrin, in Tween 80): ≥ 10000 µg/mL | solubility at 1 h (glycerol, organic solvent or mixture, in Glycerol): 260 µg/mL | Solubility (in Ethanol): 3650 µg/mL | Solubility (in Methanol): 6140 µg/mL | Solubility (in Propylene glycol): 3800 µg/mL | solubility at 1 h (methyl chloride, organic solvent or mixture, in Methyl chloride): ~60000 µg/mL | solubility at 1 h (oleic acid, oil or lipid, in Oleic acid): 2000 µg/mL | solubility at 1 h (pH 2.0 solution, pH 2, simulated gastric fluid, in pH 2.0): 440 µg/mL | solubility at 1 h (soybean oil, oil or lipid, in Soybean Oil): ~8500 µg/mL
Structure (SMILES): Cc1c(N)cccc1Cn1ccc(OCCc2cccs2)cc1=O [Compound of formula 1, 1-(3-amino-2-methylbenzyl)-4-(2-thiophen-2-yl-ethoxy)-1H-pyridin-2-one]
